Measurements reported in publication PMC7504721, “Targeting the Initiator Protease of the Classical Pathway of Complement Using Fragment-Based Drug Discovery” (Molecules, 2020).

Target: T1, C1r-CUB1 (Homo sapiens, UniProt P00736)
T1 construct: The C1r-CUB1 construct corresponds to C1r residues 18–141; made in house; host or cells: E. coli BL21 (DE3)
T1 sequence (P00736 18-141): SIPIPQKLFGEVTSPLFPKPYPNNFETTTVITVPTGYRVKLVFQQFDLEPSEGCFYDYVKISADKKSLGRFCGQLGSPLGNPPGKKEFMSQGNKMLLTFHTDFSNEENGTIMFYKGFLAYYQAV
Assay: SPR domain mapping, C1r-CUB1 surface
Type: binding
Conditions: duplicate
Text: Figure 5 Selectivity and mechanistic analysis of CMP-1611 and CMP-1696. (A) Chemical structure of CMP-1611. (B) Chemical structure of CMP-1696. (C) Dose-dependent inhibition by CMP-1611 and CMP-1696 in a classical pathway-specific ELISA. Data were fit with GraphPad Prism using non-linear regression with a log(inhibitor) vs. response model. […] The CMP-778 inhibitory response could not be fit to a dose-response inhibition model. (D) Complement pathway selectivity of CMP-1611 and CMP-1696. Compounds were assessed for their ability to inhibit activation of complement via the lectin and alternative pathways using single doses of 500 μM compound in triplicate. To ensure only lectin pathway activation, 2% (v/v) C1q-depleted serum (CompTech) was used and mannan was used as the activator. To match serum sources and amounts for this assay, the classical pathway assays were repeated here using serum from CompTech at 2% (v/v) final concentration. Alternative pathway activation assays were performed using 20% (v/v) serum (CompTech), alternative pathway buffers, and C3b detection (see Methods and Materials for details). […] (E) C1r, C1r-CUB1, and C1r-CCP2-SP, were immobilized on an SPR sensor chip and binding responses for 500 μM CMP-1611 and CMP-1696 or 10 μM Futhan were each injected in duplicate over all surfaces. Binding responses were corrected for the molecular weight of each analyte and the immobilization level and molecular weight of each surface ligand. Measures of statistical significance in (D) were obtained by comparison of vehicle control using an unpaired t-test (* p < 0.05). To assess selectivity of CMP-1611 and CMP-1696, we performed pathway-specific ELISA-based inhibition assays. […] However, CMP-1696, but not CMP-1611, blocked lectin pathway activation at a similar level as it did the classical pathway (Figure 5D). To further investigate the divergent selectivity profiles of CMP-1611 and CMP-1696, we first sought to clarify the binding site on C1r for each compound. […] We then injected each compound simultaneously over the three surfaces at 500 μM and measured binding responses. […]

Compound: CN(C)c1cc(N2CCCC(N)C2)ncn1 (stereo not drawn) [CMP-1611]
- relative SPR binding response, C1r-CUB1 (500 µM compound): bound weakly

Compound: N=C(N)c1ccc2cc(OC(=O)c3ccc(N=C(N)N)cc3)ccc2c1 [Futhan, reference compound]
- relative SPR binding response, C1r-CUB1 (10 µM Futhan): very little binding response

Compound: COCc1nc(-c2ccc(OC3CNC3)cc2)no1 [CMP-1696]
- relative SPR binding response, C1r-CUB1 (500 µM compound): low binding
